Laboratory results as given in patent publication US8409550B2, “Method for treating skin with retinoids and retinoid boosters” (Unilever Home & Personal Care, USA, Division of Conopco, …, priority 2000, dated 2013).
“And” between values parts separate entries of the source, which are not always exact repeats. Equal values may be shown once. Read-outs that look alike come from different tables or passages of the source.

Legend:
Retinal Reductase = assay: Assay for retinal reductase activity, rat liver microsomes (to identify B3); assay type: biochemical; conditions: test compound final 100 μM
[1] = test system: transglutaminase (TGase I); assay: Transglutaminase (Tgase) ELISA assay in cultured keratinocytes with retinol and boosters; assay type: cell-based, human; conditions: for TG as % C, Compd 3: Compound 3 alone; for TG as % C, Compd 3 / TG as % C Compd 2 / TG as % C Compd 1: concentration one log below IC20; for IC20: IC20 (80% of control); for Tgase levels (Mean): with 10^-7 M retinol
Retinol Dehydrogenase = assay: Assay for retinol dehydrogenase activity, rat liver microsomes (to identify B2); assay type: biochemical; conditions: test compound final 100 μM
Description: 2.2 Isolation of Rat Liver Microsomes (4)
The resulting homogenate was successively centrifuged for 30 min. at 10,000 g, 30 min. at 20,000 g, and 15 min. at 30,000 g, and the resulting supernatant was ultra-centrifuged for 80 min. at 105,000 g. […] Protein concentrations were determined as described above.
2.4 Assay for Retinol Dehydrogenase Activity (to Identify B2)
The following stock solutions were prepared:
50 mM KH2PO4, pH 7.4 buffer, sterile filtered.
10 mM all trans Retinol (Sigma 87632) in DMSO.
200 mM Nicotinamide adenine dinucleotide phosphate, sodium salt (NADP) (Sigma N0505) in sterile water.
40 mM test compound in appropriate solvent (water, buffer, ethanol, chloroform or DMSO).
1:10 dilution of rat liver Microsomes in 50 mM KH2PO4, pH 7.4 buffer (4 μg/μl).
In a two-dram glass vial with screw cap, the following were added in order:
Buffer to give a final volume of 400 μl
25 μl diluted Microsomes (final=100 μg)—boiled Microsomes were used for controls and regular Microsomes for test samples.
4 μl of 200 mM NADP (final=2 mM)
1 μl of 40 mM test compound (final=100 μM)
8 μl of 10 mM retinol (final=200 μM)
The vials were incubated in a 37° C. shaking water bath for 45 minutes. 500 μl ice-cold ethanol was added to each vial to quench the reaction. The retinoids were extracted twice with ice cold hexane (2.7 ml per extraction). […]

[2] = test system: cytochrome P450 dependent retinoic acid oxidation; assay: Assay for NADPH dependent retinoic acid oxidation, rat liver microsomes (to identify B5); conditions: for % Inhibition Retinoic Acid (10 μM): compound 10 μM; for % Inhibition Retinoic Acid (100 μM): compound 100 μM
ARAT = assay: Assay for ARAT activity, bovine RPE microsomes (to identify B1); assay type: biochemical; conditions: for % Inhibition ARAT (100 jm): compound 100 jm
LRAT = biological target: T1, LRAT (Bos taurus, UniProt Q9BGL2); assay: Assay for LRAT activity, bovine RPE microsomes (to identify B1); assay type: biochemical; conditions: for % Inhibition LRAT (10 jm): compound 10 jm; for % Inhibition LRAT (100 jm): compound 100 jm
T1 construct: followed by approximately 15 μg of RPE microsomal protein; tissue W. L. Lawson Co., Lincoln, Nebr., USA (eyecups); host or cells: bovine retinal pigment epithelium microsomes
T1 sequence (Q9BGL2 1-230): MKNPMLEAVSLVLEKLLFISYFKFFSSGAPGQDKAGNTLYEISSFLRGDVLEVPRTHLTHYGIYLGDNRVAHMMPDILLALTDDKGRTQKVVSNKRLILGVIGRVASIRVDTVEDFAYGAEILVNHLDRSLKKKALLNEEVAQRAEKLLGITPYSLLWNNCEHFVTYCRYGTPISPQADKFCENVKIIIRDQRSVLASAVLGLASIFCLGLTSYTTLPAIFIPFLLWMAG

[3] = in the presence of 10^-7M retinol
[4] = compound tested individually in the presence of 10^-7 M retinol
[5] = Compound 2 alone, in the presence of 10^-7M retinol
[6] = B1 table, booster concentration which with 10^−7 M retinol inhibits TGase by 50%, same values in the 19th table (Molar), read-out: Overall TG (IC 50)
[7] = Tgase inhibition, compound tested individually in the presence of 10^-7 M retinol, read-out: IC50

CCCCCCCCCCCCCCCCCCCC(=O)O [Arachidic Acid]
% Inhibition Retinal Reductase (Retinal Reductase): 20%

COc1cc(C=O)ccc1O [Vanillin]
TG as % C, Compd 3 [1, 3]: 134 % C
IC20 [1, 4]: 8470 µM
% Inhibition Retinal Reductase (Retinal Reductase): 6%

Sphingomyelin
TG as % C, Compd 3 [1, 3]: 60 % C
Tgase levels (Mean) ([1]; booster 1.0E−05 Molar): 77.8 % of control
Tgase levels (Mean) ([1]; booster 1.1E−06 Molar): 98.8 % of control
Tgase levels (Mean) ([1]; booster 1.23E−07 Molar): 70.0 % of control
Tgase levels (Mean) ([1]; booster 1.65E−09 Molar): 68.4 % of control
Tgase levels (Mean) ([1]; booster 3.0E−05 Molar): 45 % of control
Tgase levels (Mean) ([1]; booster 3.29E−10 Molar): 69.2 % of control
Tgase levels (Mean) ([1]; booster 3.33E−06 Molar): 76.4 % of control
Tgase levels (Mean) ([1]; booster 3.73E−07 Molar): 91.6 % of control
Tgase levels (Mean) ([1]; booster 4.10E−08 Molar): 74.6 % of control
Tgase levels (Mean) ([1]; booster 8.2E−08 Molar): 115.2 % of control
TG as % C Compd 2 ([1]; compound 2 alone, with retinol): 84 % C and 98 % C
% Increase Retinol Dehydrogenase (Retinol Dehydrogenase): 26% increase

CC(=O)N1CCN(c2ccc(OCC3COC(Cn4ccnc4)(c4ccc(Cl)cc4Cl)O3)cc2)CC1 (stereo not shown) [Ketoconazole, reference compound]
% Inhibition Retinoic Acid (10 μM) [2]: 84%
% Inhibition Retinoic Acid (100 μM) [2]: 84%
TG as % C Compd 2 [1, 5]: 85 % C
IC20 [1, 4]: 0.0552 µM

Acetyl Sphingosine
IC50 [1, 6]: 6.78 µM
TG as % C, Compd 3 [1, 3]: 99 % C
IC20 [1, 4]: 5.15 µM
IC50 [1, 7]: 6.78 µM
% Inhibition ARAT (10 jm) (ARAT; compound 10 jm): 19% +/− 12
% Inhibition ARAT (100 jm) (ARAT): 62% +/− 11
% Inhibition LRAT (10 jm) (LRAT): 10% +/− 10
% Inhibition LRAT (100 jm) (LRAT): 50% +/− 18

Isobutyl Ionone
% Inhibition ARAT (100 jm) (ARAT): 8%
% Inhibition LRAT (100 jm) (LRAT): 45%

Cocoyl Monoethanolamide
% Inhibition ARAT (100 jm) (ARAT): 13%
% Inhibition LRAT (100 jm) (LRAT): 34%

CC(C)(C)C(=O)C(Oc1ccc(Cl)cc1)n1ccnc1 (stereo not shown) [Climbazole, reference compound]
% Inhibition Retinoic Acid (10 μM) [2]: 80%
% Inhibition Retinoic Acid (100 μM) [2]: 92%
TG as % C Compd 2 [1, 5]: 84 % C
TG as % C, Compd 3 [1, 3]: 84 % C
IC20 [1, 4]: 0.245 µM

CC(=O)/C=C/C=C(\C)CCC=C(C)C [Pseudoionone]
% Inhibition LRAT (100 jm) (LRAT): 37%

CCCC(O)CCC1C(C)CCCC1(C)C (stereo not shown) [Timberol]
% Inhibition LRAT (100 jm) (LRAT): 33%

C/C=C/C(=O)C1=C(C)CCCC1(C)C [Beta-Damascone]
% Inhibition LRAT (10 jm) (LRAT): 52%
% Inhibition LRAT (100 jm) (LRAT): 92%

c1ccc(-c2ccc(C(c3ccccc3)n3ccnc3)cc2)cc1 (stereo not shown) [Bifonazole]
% Inhibition Retinoic Acid (10 μM) [2]: 89%
% Inhibition Retinoic Acid (100 μM) [2]: 100%

Hexanoyl Sphingosine
IC50 [1, 6]: 99.9 µM
TG as % C Compd 1 ([1]; Compound 1 alone, in the presence of 10^-7M retinol): 104 % C
IC20 [1, 4]: 69.4 µM
IC50 [1, 7]: 99.9 µM
TG as % C Compd 1 ([1]; compound 1 alone, with retinol): 122 % C and 99.3 % C and 99 % C and 109 % C
% Inhibition LRAT (100 jm) (LRAT): 37% +/− 9

Clc1ccccc1C(c1ccccc1)(c1ccccc1)n1ccnc1 [Clotrimazole, reference compound]
% Inhibition Retinoic Acid (10 μM) [2]: 76%
TG as % C, Compd 3 [1, 3]: 79 % C

CCCCCCCC/C=C\CCCCCCCC1=NCCN1CCO [Oleyl Hydroxyethylimidazoline]
% Inhibition Retinoic Acid (10 μM) [2]: 54%
% Inhibition Retinoic Acid (100 μM) [2]: 80%
IC50 ([1]; B5 table, with 10^−7 M retinol, read-out: Overall TG (IC 50)): 30.2 µM
TG as % C, Compd 3 [1, 3]: 76 % C
IC20 [1, 4]: 5.65 µM
IC50 [1, 7]: 30.2 µM
TG as % C Compd 2 ([1]; compound 2 alone, with retinol, listed as Oleoyl hydorxyethylimdazoline): 92 % C
TG as % C Compd 2 ([1]; compound 2 alone, with retinol, listed as Oleoyl hydroxyethylimiazoline): 73 % C

CC1(C)[C@@H](O)CC[C@]2(C)[C@H]3C(=O)C=C4[C@@H]5C[C@@](C)(C(=O)O)CC[C@]5(C)CC[C@@]4(C)[C@]3(C)CC[C@@H]12 [Glycyrretinic Acid, Glycyrrhetinic Acid]
TG as % C Compd 2 [1, 5]: 91 % C
TG as % C, Compd 3 [1, 3]: 91 % C
IC20 [1, 4]: 5.96 µM
IC50 [1, 7]: 8.64 µM
TG as % C Compd 2 ([1]; compound 2 alone, with retinol): 92 % C
% Inhibition Retinal Reductase (Retinal Reductase): 38% +/− 1

Santalone
% Inhibition ARAT (100 jm) (ARAT): 23%
% Inhibition LRAT (100 jm) (LRAT): 12%

Clc1ccc(COC(Cn2ccnc2)c2ccc(Cl)cc2Cl)cc1 (stereo not shown) [Econazole]
% Inhibition Retinoic Acid (10 μM) [2]: 88%
% Inhibition Retinoic Acid (100 μM) [2]: 100%
